Measurements: patent US10111862B2, “Traps in the treatment of macular degeneration” (Aldeyra Therapeutics, Inc., priority 2013, dated 2018)

Experiment: RAL depletion by compounds in rod outer segment preparation
Type: biochemical, bovine
Details: rod outer segment preparation containing 64 μM opsin at 37° C.; for Kapp, apparent equilibrium constant of RAL depletion / kapp, apparent second order rate constant of RAL depletion: nominal starting drug 1.00 mM, RAL 60 μM; for ΔGapp, apparent free energy change of RAL depletion: ΔGapp=−RT ln Kapp
Experimental: The parameters associated with the RAL depletion chemistry are as follows:
[drawing 47] kapp: apparent second order rate constant of RAL depletion by drug. Kapp: apparent equilibrium constant of RAL depletion by drug.
[formula] ΔGapp: apparent free energy change of RAL depletion by drug. ΔGapp=−RT ln Kapp (2) Kring: equilibrium constant of tautomerism from imine to oxaminal (ring closed).
Frozen bovine rod outer segment preparation (64 μM of opsin) is thawed and vortexed thoroughly. A 200 μL aliquot of this sample is transferred into a 0.5 mL Eppendorf tube. To it is added 10 μL of 20 mM drug stock solution in EtOH, and the mixture is vortexed for 1 min. The tube is incubated at 37° C. in a Thermo Scientific microprocessor controlled 280 series water bath for 3 min before 5 μL freshly prepared 2.4 mM RAL solution in EtOH is added (the nominal starting concentrations of drug and RAL are 1.00 mM and 60 μM, respectively). After vortexing for 1 min, the tube is incubated at 37° C. over time. Aliquots of the reaction mixture (25 μL each) are taken periodically, and added onto 10 mg of solid NaBH4 in a 0.5 mL Eppendorf tube. To the latter is added carefully 400 μL of 2:1 (v/v) EtOH/HOAc. The reduction mixture is vortexed for 1 min and centrifuged. The supernatant is separated, and analyzed by HPLC using a standard HPLC method:
Solvent A: 0.05% HCOOH/95% HPLC grade water/5% HPLC grade MeCN
Solvent B: 0.05% HCOOH HPLC grade MeCN
Detector wavelengths: 329 and 250 nm
Reference wavelength: 400 nm
The RAL depletion percentages are calculated by normalization of ROL and Re-RAL-drug peak integrals, which are then plotted against reaction time. Least squares fit of the RAL depletion plot according to pseudo-first order kinetics yields observed first order rate constant kobsd, and kapp is calculated according to kobsd=kapp[drug]. Kapp is calculated from the equilibrium concentrations of free RAL, free drug and RAL-drug according to equation (1). ΔGapp was calculated according equation (2).

SMILES | Kapp, apparent equilibrium constant of RAL depletion | kapp, apparent second order rate constant of RAL depletion | ΔGapp, apparent free energy change of RAL depletion
Cc1ccc(-c2nc3cc(N)c(C(C)(C)O)c(Cl)c3o2)cc1 [Compound 2, 2-(5-amino-7-chloro-2-p-tolylbenzoxazol-6-yl)propan-2-ol] | 2.29×10^6 | 24,700 M^−1·h^−1 | -9.0 kcal/mol
CC(C)(O)c1c(N)cc2c(C3CC3)noc2c1Cl [Compound 5, 2-(5-amino-7-chloro-3-cyclopropylbenzisoxazol-6-yl)propan-2-ol] | >2 × 10^7 | 35,300 M^−1·h^−1 | <-10 kcal/mol
CC(C)(O)c1c(N)cc2nc(-c3ccccc3)oc2c1Cl [Compound 3, 2-(5-amino-7-chloro-2-phenylbenzoxazol-6-yl)propan-2-ol] | 7.14×10^6 | 21,600 M^−1·h^−1 | -9.7 kcal/mol
CC(C)(O)c1c(N)cc2onc(C3CC3)c2c1Cl [Compound 4, 2-(6-amino-4-chloro-3-cyclopropylbenzisoxazol-5-yl)propan-2-ol] | >2 × 10^7 | 31,700 M^−1·h^−1 | <-10 kcal/mol
CC(C)(O)c1nc2ccc(Cl)cc2cc1N [reference compound] | 1.55 × 10^5 | 3,570 M^−1·h^−1 | -7.4 kcal/mol
CC(C)(O)c1c(N)cc(Cl)c2c(C3CC3)noc12 [Compound 6, 2-(6-amino-4-chloro-3-cyclopropylbenzisoxazol-7-yl)propan-2-ol] | 3.35×10^6 | 12,700 M^−1·h^−1 | -9.2 kcal/mol
CC(C)(O)c1cc2oc(-c3ccccc3)nc2cc1N [reference compound] | 1.25 × 10^6 | 25,500 M^−1·h^−1 | -8.6 kcal/mol
